Consider seven molecules from patent US10137212B2, “Tetrahydroxamate chelators of zirconium89 and niobium90 for use in diagnostic applications” (priority 2013, dated 2018).

Each structure is given as a SMILES string.

What all share (format): physicochemical
A short description of data set [1]: in vitro stability of ^89Zr complexes in 0.1 M sodium phosphate buffer pH 6.5. Particulars: 0.1 M sodium phosphate buffer pH 6.5, 10% DMSO, 37° C. As to the method:
(§1) 10 μL of each ^89Zr complex solution prepared as described above in Example 14 were incubated for 7 days in 40 μL Phosphate-Buffered Saline (PBS) (pH 7.4-10% DMSO) at 20° C., 40 μL sodium phosphate buffer (0.1 M, pH 6.5-10% DMSO) at 37° C., 40 μL human serum at 37° C., or 40 μL 50 mM EDTA (pH 7, 10% DMSO) at 37° C., respectively, and analyzed using the chromatographic system described in the above section after 1 h, 3 h, 1, 2, 3, 4, 5, 6, and 7 days.

Data set [2] is described as follows: complexation of ligands with ^89Zr, yield by ITLC-SG. Particulars: 7.5 nmol ligand, pH 7. How it is done: All solutions described below were prepared with de-ionized water purified through a Chelex column prior to use. Stock solutions of ^89Zr at pH 7 were prepared as follow: to 450 μL of the ^89Zr solution in oxalic acid were added 450 μL of a 1M Na2CO3 solution and the pH was adjusted to 7 by addition of small aliquots of a 0.1 M Na2CO3 or 0.1 M HCl. 450 μL of water containing 3% bovine serum albumin were then added. To 45 μL of stock solution (˜1.3 MBq of ^89Zr in a typical experiment) were added 7.5 nmol (5 μL) of L5, L6, L7, C5, C6, or C7 in DMSO or the natural siderophore desferrioxamine B (DFB) mesylate in de-ionized water. These solutions were incubated at desired temperatures and time of reaction and analyzed by ITLC-SG using a 50 mM EDTA (ethylenediaminetetraacetic acid) solution adjusted to pH=7 in de-ionized water as eluant, and analyzed with a Typhoon 8600 scanner (GE Healthcare) in phosphorimaging mode. The percentage of the activity bound to the ligand after TLC was calculated by converting the TLC scan into a chromatogram and integrating the peak corresponding to the spot at the bottom of the TLC. Activity ratios were averaged out of a minimum of 2 TLCs for each condition. The influence of time and temperature on the complexation yield of ^89Zr by L5, L6, L7, C5, C6 and C7 and DFB is shown in Table 1. […]

The nature of data set [3]: in vitro stability of ^89Zr complexes in 50 mM EDTA (challenge). Particulars: pH 7, 37° C.; for ^89Zr remaining complexed after a week: 7 days (n=4), FIG. 13. How it is done: FIG. 13 is a graph illustrating the stability of the ^89Zr-complexes in 50 mM EDTA at pH 7 and 37° C. over 7 days (n=4).
as §1

Regarding `CC(=O)N(O)CCCCCNC(=O)CCC(=O)N(O)CCCCCNC(=O)CCC(=O)N(O)CCCCCN` [DFB, desferrioxamine B, reference compound], the “Fraction of intact complex” value in data set [1] (1 Day) was 99%; in data set [1] (4 Days), 98%; in data set [1] (7 Days) it was 98%. For the same molecule, the “complexation yield of ^89Zr” value is reported as greater than 99% in data set [2] (20° C., 30 min); greater than 99% in data set [2] (20° C., 120 min); greater than 99% in data set [2] (50° C., 30 min); greater than 99% in data set [2] (80° C. (time not given)).

For `O=C1CCCCCN(O)C(=O)CCCCCN(O)C(=O)CCCCCN(O)C(=O)CCCCCN1O` [Ligand C5], the “time of release of ~50% of ^89Zr” value in data set [3] is “within the first minutes”. In data set [3], the “^89Zr remaining complexed after a week” value is “nearly none”. The “Fraction of intact complex” value in data set [1] (1 Day) came out at 69%; in data set [1] (4 Days) it was 46%; in data set [1] (7 Days), 42%. For the same molecule, the “complexation yield of ^89Zr” value in data set [2] (20° C., 30 min) came out at 17%; in data set [2] (20° C., 120 min) it was 22%; in data set [2] (50° C., 30 min), 23%; in data set [2] (80° C. (time not given)), 29%.

Consider `O=C1CCCCCCN(O)C(=O)CCCCCCN(O)C(=O)CCCCCCN(O)C(=O)CCCCCCN1O` [Ligand C6], for which the “time of release of ~50% of ^89Zr” value in data set [3] was “a single day”. In addition, the “^89Zr remaining complexed after a week” value in data set [3] worked out at 32±4%. Also, the “Fraction of intact complex” value in data set [1] (1 Day) is recorded as 89%; in data set [1] (4 Days), 79%; in data set [1] (7 Days) it was 61%. Further, the “complexation yield of ^89Zr” value is 77% in data set [2] (20° C., 30 min); 79% in data set [2] (20° C., 120 min); 92% in data set [2] (50° C., 30 min); 92% in data set [2] (80° C. (time not given)).

With `O=C1CCCCCCCN(O)C(=O)CCCCCCCN(O)C(=O)CCCCCCCN(O)C(=O)CCCCCCCN1O` [Ligand C7], the “^89Zr remaining complexed after a week” value in data set [3] is listed as 87±3%. Further, the “Fraction of intact complex” value in data set [1] (1 Day) is greater than 99%; in data set [1] (4 Days), 99%; in data set [1] (7 Days) it was 99%. Further, the “complexation yield of ^89Zr” value in data set [2] (20° C., 30 min) is 92%; in data set [2] (20° C., 120 min), greater than 99%; in data set [2] (50° C., 30 min), greater than 99%; in data set [2] (80° C. (time not given)) it was greater than 99%.

With `CCCCC(=O)N(O)CCCCCC(=O)N(O)CCCCCC(=O)N(O)CCCCCC(=O)N(O)CCC` [Ligand L5], the “Fraction of intact complex” value in data set [1] (1 Day) amounted to 93%; in data set [1] (4 Days) it was 89%; in data set [1] (7 Days), 77%. Besides, the “complexation yield of ^89Zr” value in data set [2] (20° C., 30 min) is recorded as 60%; in data set [2] (20° C., 120 min), 71%; in data set [2] (50° C., 30 min), 73%; in data set [2] (80° C. (time not given)) it was 87.3%.

As for `CCCCCC(=O)N(O)CCCCCCC(=O)N(O)CCCCCCC(=O)N(O)CCCCCCC(=O)N(O)CCC` [Ligand L6], the “Fraction of intact complex” value in data set [1] (1 Day) is listed as 97%; in data set [1] (4 Days), 94%; in data set [1] (7 Days) it was 94%. The “complexation yield of ^89Zr” value in data set [2] (20° C., 30 min) is reported as 82%; in data set [2] (20° C., 120 min), 95%; in data set [2] (50° C., 30 min), 96%; in data set [2] (80° C. (time not given)), greater than 99%.

For `CCCCCCC(=O)N(O)CCCCCCCC(=O)N(O)CCCCCCCC(=O)N(O)CCCCCCCC(=O)N(O)CCC` [Ligand L7], the results for the “Fraction of intact complex” value in data set [1] (1 Day), in data set [1] (4 Days) and in data set [1] (7 Days) were 99%, 98% and 98%, respectively. The “complexation yield of ^89Zr” value in data set [2] (20° C., 30 min) was 88%; in data set [2] (20° C., 120 min), greater than 99%; in data set [2] (50° C., 30 min) it was greater than 99%; in data set [2] (80° C. (time not given)), greater than 99%.
